pEC50, pIC50: −log10 of the molar value. Values joined by “and” are separate entries in the source; they are usually repeats but may differ in a detail not shown here. Equal entries are not always repeated. “Also recorded” adds a separate entry of the source. Where two headings read alike, the source gives them in different places.
Experiments:
[1] = tested on: PAR synthesis in LoVo cells; experiment: Intracellular PAR formation assay; format: cell-based; conditions: Homo sapiens
[2] = tested on: LoVo cells; experiment: Temozolomide potentiation; format: cell-based, human
[3] = tested on: Capan-1 (BRCA2 deficient); experiment: Single-agent cytotoxicity assay, Capan-1; format: cell-based, human
[4] = tested on: PC-3 (PTEN deficient); experiment: Single-agent 2-D cytotoxicity assay, PC-3; format: cell-based; conditions: Homo sapiens, read-out: SF50 PC-3 (PTEN deficient)
[5] = tested on: MDA-MB-231; experiment: Single-agent 2-D cytotoxicity assay, MDA-MB-231; format: cell-based; conditions: Homo sapiens, MDA-MB-231, read-out: SF50 MDA-MB-231
[6] = tested on: MRC-5 (Normal); experiment: Single-agent 2-D cytotoxicity assay, MRC-5; format: cell-based, human
[7] = biological target: Poly (ADP-ribose) Glycohydrolase (PARG) (Homo sapiens, UniProt Q86W56); experiment: PARG activity assay; format: biochemical; conditions: concentrations up to 1 μM; data not shown
Poly (ADP-ribose) Glycohydrolase (PARG), sequence (Q86W56 whole entry, species assumed): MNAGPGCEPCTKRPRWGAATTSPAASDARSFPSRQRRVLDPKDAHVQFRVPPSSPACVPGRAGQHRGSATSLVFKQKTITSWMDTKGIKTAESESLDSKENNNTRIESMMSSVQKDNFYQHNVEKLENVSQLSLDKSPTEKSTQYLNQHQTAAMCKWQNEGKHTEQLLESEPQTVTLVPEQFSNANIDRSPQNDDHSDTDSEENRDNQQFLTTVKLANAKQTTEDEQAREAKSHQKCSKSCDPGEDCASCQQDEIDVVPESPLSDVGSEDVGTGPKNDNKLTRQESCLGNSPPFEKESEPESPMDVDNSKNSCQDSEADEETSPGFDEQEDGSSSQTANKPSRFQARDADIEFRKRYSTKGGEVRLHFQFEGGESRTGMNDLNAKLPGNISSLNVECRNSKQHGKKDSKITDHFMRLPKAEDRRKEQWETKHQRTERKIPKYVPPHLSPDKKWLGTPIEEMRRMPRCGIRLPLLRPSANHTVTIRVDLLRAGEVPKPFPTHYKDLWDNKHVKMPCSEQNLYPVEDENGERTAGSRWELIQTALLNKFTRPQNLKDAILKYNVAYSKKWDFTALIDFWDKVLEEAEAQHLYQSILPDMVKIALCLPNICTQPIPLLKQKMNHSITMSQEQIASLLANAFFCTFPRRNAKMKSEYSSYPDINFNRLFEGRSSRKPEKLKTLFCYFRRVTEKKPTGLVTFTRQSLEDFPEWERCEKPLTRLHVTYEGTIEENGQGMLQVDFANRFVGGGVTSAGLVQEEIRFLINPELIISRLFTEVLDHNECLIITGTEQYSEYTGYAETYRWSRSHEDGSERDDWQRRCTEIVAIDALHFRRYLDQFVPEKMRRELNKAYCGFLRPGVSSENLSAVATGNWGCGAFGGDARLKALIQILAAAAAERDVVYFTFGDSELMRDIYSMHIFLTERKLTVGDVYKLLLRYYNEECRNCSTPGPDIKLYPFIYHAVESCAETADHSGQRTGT

[8] = biological target: potassium ion channel hERG (Homo sapiens, UniProt Q12809); experiment: hERG in vitro assay; conditions: concentrations as high as 100 μM
potassium ion channel hERG, sequence (Q12809 whole entry): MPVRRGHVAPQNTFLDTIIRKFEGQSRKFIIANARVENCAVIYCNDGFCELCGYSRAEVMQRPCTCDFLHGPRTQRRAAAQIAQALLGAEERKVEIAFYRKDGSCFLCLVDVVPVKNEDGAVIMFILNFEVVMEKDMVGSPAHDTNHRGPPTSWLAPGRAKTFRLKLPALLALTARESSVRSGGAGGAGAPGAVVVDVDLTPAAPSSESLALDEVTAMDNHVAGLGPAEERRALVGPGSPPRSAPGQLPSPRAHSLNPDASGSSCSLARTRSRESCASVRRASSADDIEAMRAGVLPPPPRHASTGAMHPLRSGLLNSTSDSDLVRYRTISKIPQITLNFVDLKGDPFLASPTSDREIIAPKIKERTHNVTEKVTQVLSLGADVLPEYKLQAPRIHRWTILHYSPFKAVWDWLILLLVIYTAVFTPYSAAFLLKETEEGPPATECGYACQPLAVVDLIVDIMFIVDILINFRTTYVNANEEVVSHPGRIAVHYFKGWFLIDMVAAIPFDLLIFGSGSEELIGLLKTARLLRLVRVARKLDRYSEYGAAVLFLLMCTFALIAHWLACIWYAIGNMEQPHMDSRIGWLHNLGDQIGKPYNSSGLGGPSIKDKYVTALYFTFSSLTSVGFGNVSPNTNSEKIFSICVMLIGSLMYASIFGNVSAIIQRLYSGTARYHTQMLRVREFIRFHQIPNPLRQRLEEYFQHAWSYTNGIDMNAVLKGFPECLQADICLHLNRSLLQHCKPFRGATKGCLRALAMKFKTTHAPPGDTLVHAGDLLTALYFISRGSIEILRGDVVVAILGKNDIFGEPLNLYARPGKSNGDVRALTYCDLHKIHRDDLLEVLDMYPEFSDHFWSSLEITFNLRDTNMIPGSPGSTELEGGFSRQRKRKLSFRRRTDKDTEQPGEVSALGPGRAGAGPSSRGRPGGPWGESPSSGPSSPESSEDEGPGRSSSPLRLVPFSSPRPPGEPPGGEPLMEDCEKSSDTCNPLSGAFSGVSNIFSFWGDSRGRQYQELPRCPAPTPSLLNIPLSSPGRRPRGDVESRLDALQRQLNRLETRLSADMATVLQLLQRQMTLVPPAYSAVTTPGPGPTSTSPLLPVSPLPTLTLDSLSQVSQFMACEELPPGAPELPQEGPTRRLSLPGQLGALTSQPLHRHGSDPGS

[9] = Liver microsome stability, rat; format: in vitro ADME; conditions: rats, two hours, 1 μM
[10] = Liver microsome stability, dog; format: in vitro ADME; conditions: dogs, two hours, 1 μM
[11] = Liver microsome stability, human; format: in vitro ADME; conditions: humans, two hours, 1 μM
[12] = biological target: T1, CYP1A2 (Homo sapiens, UniProt P05177); experiment: CYP450 inhibition, CYP1A2; format: in vitro ADME; conditions: concentrations up to 10 μM; data not shown
T1 sequence (P05177 1-516): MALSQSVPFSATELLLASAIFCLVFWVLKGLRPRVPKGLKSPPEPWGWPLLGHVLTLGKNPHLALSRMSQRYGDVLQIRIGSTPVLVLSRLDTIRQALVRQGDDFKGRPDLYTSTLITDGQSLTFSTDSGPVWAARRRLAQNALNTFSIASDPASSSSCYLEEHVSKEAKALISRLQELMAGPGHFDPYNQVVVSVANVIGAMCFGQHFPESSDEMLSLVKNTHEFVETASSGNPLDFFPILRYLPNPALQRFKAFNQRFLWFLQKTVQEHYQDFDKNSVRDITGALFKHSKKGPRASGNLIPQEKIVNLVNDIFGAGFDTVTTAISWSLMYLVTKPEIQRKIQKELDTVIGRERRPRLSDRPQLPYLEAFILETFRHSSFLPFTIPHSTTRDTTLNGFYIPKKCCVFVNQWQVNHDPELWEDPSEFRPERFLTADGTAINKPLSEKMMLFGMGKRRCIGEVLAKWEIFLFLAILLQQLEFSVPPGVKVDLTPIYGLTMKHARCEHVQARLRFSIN

[13] = biological target: CYP2C9 (Homo sapiens, UniProt P11712); experiment: CYP450 inhibition, CYP2C9; format: in vitro ADME; conditions: concentrations up to 10 μM; data not shown
CYP2C9, sequence (P11712 whole entry): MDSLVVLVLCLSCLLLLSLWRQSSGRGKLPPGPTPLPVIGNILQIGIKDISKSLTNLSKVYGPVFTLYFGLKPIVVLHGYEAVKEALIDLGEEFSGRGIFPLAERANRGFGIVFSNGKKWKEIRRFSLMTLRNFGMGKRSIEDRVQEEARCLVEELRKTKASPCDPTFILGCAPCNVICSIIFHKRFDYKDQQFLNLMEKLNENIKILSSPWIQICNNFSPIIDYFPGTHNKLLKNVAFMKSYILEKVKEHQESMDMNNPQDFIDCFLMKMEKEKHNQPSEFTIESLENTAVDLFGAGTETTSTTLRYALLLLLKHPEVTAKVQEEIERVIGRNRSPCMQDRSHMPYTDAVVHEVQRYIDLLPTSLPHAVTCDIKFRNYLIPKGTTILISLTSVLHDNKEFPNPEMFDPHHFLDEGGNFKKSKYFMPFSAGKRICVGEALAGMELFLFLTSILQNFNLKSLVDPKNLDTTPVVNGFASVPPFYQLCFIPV

[14] = biological target: CYP2C19 (Homo sapiens, UniProt P33261); experiment: CYP450 inhibition, CYP2C19; format: in vitro ADME; conditions: concentrations up to 10 μM; data not shown
CYP2C19, sequence (P33261 whole entry): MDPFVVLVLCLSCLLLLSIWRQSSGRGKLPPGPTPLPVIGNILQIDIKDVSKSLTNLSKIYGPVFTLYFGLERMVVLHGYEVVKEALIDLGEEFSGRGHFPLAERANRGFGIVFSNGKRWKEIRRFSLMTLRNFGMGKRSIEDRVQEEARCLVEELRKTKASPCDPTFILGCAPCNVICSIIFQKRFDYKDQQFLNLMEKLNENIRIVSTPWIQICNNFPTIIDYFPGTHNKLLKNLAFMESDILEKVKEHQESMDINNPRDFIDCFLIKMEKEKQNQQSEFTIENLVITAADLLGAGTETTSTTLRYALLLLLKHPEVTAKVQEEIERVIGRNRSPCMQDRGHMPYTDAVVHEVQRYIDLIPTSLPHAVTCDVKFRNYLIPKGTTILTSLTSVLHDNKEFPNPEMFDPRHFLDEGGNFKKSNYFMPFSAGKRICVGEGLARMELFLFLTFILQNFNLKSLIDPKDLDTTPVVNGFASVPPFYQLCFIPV

[15] = biological target: CYP2D6 (Homo sapiens, UniProt P10635); experiment: CYP450 inhibition, CYP2D6; format: in vitro ADME; conditions: concentrations up to 10 μM; data not shown
CYP2D6, sequence (P10635 whole entry): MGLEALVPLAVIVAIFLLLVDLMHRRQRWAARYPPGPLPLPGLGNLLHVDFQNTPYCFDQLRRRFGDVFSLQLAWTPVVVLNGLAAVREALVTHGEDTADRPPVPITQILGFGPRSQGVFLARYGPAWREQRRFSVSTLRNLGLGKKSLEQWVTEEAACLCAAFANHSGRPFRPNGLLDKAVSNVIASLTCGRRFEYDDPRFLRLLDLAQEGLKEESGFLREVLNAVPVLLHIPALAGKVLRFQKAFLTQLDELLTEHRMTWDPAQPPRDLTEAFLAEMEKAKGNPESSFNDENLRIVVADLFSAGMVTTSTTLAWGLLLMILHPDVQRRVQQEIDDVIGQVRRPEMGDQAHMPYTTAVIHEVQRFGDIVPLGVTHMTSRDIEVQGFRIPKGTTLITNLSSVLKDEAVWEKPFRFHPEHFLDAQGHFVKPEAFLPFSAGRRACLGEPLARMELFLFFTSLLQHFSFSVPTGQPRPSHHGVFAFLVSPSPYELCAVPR

[16] = biological target: CYP3A4 (Homo sapiens, UniProt P08684); experiment: CYP450 inhibition, CYP3A4; format: in vitro ADME; conditions: concentrations up to 10 μM; data not shown
CYP3A4, sequence (P08684 whole entry): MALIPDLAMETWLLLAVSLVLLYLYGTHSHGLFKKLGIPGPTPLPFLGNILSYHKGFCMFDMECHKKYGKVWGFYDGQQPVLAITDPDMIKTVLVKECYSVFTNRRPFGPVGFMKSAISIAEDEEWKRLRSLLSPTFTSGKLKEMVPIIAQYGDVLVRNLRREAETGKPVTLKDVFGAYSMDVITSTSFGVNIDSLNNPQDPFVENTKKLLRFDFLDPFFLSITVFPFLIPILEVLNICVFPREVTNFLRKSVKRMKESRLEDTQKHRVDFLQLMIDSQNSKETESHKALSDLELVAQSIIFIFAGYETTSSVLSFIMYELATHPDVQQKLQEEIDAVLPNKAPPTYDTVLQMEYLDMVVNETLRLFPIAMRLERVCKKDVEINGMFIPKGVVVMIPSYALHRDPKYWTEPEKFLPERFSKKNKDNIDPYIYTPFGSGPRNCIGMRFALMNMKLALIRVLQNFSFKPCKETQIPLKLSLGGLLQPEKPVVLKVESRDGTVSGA

[17] = tested on: MX-1 tumor xenografts; experiment: MX-1 xenograft, single agent; format: in vivo, mice
[18] = tested on: MX-1 tumor PAR levels; experiment: PAR assay in vivo; parameters: species or system mice
[19] = tested on: MDA-MB-468 xenograft; experiment: MDA-MB-468 xenograft, single agent; format: in vivo, mice
[20] = tested on: LNCap xenograft; experiment: LNCap xenograft, single agent; format: in vivo, mice; conditions: 0.33 mg/kg oral QDx28, vs vehicle-treated control
[21] = tested on: MX-1 cells; experiment: SN-38 chemo-sensitization assay; format: cell-based, human; conditions: MX-1 cells in vitro, 5 days
[22] = Combination with platinum drugs in vitro; format: cell-based; conditions: data not shown
[23] = tested on: MX-1 tumor xenografts; experiment: Cisplatin combination study, MX-1 xenograft; format: in vivo, mice
[24] = tested on: MX-1 tumor xenografts; experiment: Carboplatin combination study, MX-1 xenograft; format: in vivo, mice
[25] = biological target: recombinant human PARP1 (Homo sapiens, UniProt P09874); conditions: for off-rate / on-rate: immobilized rhPARP1, Biacore T200
recombinant human PARP1, sequence (P09874 662-1011): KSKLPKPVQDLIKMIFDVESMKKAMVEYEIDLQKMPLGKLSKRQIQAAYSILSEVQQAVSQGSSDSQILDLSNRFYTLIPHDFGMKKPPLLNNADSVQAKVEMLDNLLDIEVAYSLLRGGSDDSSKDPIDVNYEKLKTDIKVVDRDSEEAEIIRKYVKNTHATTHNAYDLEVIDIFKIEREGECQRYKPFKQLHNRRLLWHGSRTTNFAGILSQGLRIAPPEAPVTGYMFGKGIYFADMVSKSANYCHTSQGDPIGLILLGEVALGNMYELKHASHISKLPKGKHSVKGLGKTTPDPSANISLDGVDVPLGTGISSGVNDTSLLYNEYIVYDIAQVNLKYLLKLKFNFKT

[26] = Homo sapiens, CAPAN-1, read-out: Capan-1 Cytotoxicity IC50
[27] = Homo sapiens, CAPAN-1, read-out: SF50 Capan-1 (BRCA2 deficient)
[28] = Homo sapiens, MRC5, read-out: SF50 MRC-5 (Normal)
[29] = 2 hours after single oral dose (BMN 673 1 mg/kg; olaparib 100 mg/kg)
[30] = 8 hours after single oral dose (BMN 673 1 mg/kg; olaparib 100 mg/kg)
[31] = 24 hours after single oral dose (BMN 673 1 mg/kg; olaparib 100 mg/kg)

Cn1ncnc1[C@H]1c2n[nH]c(=O)c3cc(F)cc(c23)N[C@@H]1c1ccc(F)cc1 [BMN 673, (8S,9R)-5-fluoro-8-(4-fluorophenyl)-9-(1-methyl-1H-1,2,4-triazol-5-yl)-8,9-dihydro-2H-pyrido[4,3,2-de]phthalazin-3(7H)-one]
pEC50 ([1]; read-out: Cellular PAR Synthesis EC50): 8.60
pIC50 ([1]; read-out: intracellular PAR formation IC50): 8.60
potentiation of TMZ cytotoxicity ([2]; combined with 200 μM TMZ): significant potentiation
pIC50 [3, 26]: 8.30
pIC50 [3, 27]: 8.30
pIC50 [4]: 8.40
pIC50 [5]: 5.73
pIC50 [6, 28]: 6.51
effect on PARG activity [7]: no effect
hERG inhibition [8]: no significant inhibition
remaining after incubation in liver microsomes [9]: more than 90%
remaining after incubation in liver microsomes [10]: more than 90%
remaining after incubation in liver microsomes [11]: more than 90%
CYP1A2 inhibition [12]: did not inhibit
CYP2C9 inhibition [13]: did not inhibit
CYP2C19 inhibition [14]: did not inhibit
CYP2D6 inhibition [15]: did not inhibit
CYP3A4 inhibition [16]: did not inhibit
effect on tumor growth ([17]; 0.1 mg/kg oral once daily, after extended treatment (>21 days)): small effect on tumor growth
tumor re-establishment after dosing ceased ([17]; 0.165 mg/kg/dose BID x 28, followed eight weeks after dosing ceased): none of the mice had tumor re-growth; also recorded: no re-establishment of tumor
mice achieving complete response (CR) ([17]; 0.165 mg/kg/dose oral BID, 28 days): all 6 mice and 6/6
tolerability ([17]; 0.33 mg/kg and 0.1 mg/kg, 28 consecutive once daily oral doses): well tolerated
mice achieving complete response (CR, tumor impalpable) ([17]; 0.33 mg/kg oral once-a-day, 28 days): four CRs out of six
intratumoral PAR level [18, 29]: drastically decreased
intratumoral PAR level [18, 30]: drastically decreased
intratumoral PAR level [18, 31]: Partial recovery
tumor growth delay ([19]; 0.33 mg/kg oral QDx28, vs vehicle-treated control): 15.9 days
effectiveness of 0.165 mg/kg/dose BIDx28 vs 0.33 mg/kg/dose QDx28 ([19]; MDA-MB-468 xenograft): slightly more effective
tumor growth delay [20]: 22.8 days
potentiation of the cytotoxic effect of SN38 [21]: potentiated
effect of combining with platinum drugs in vitro [22]: clearly additive effect
maximum average weight loss ([23]; BMN 673 0.033 mg/kg plus cisplatin 6 mg/kg IP): 3%
maximum average weight loss ([23]; BMN 673 0.1 mg/kg plus cisplatin 6 mg/kg IP): 5%
maximum average weight loss ([23]; BMN 673 0.33 mg/kg plus cisplatin 6 mg/kg IP): 6%
maximum average weight loss ([23]; BMN 673 1 mg/kg plus cisplatin 6 mg/kg IP): 11%
animal deaths ([23]; BMN 673 1 mg/kg plus cisplatin, Day 20): One animal died
growth of MX-1 tumor xenografts ([23]; BMN 673 oral once daily days 1-8 plus cisplatin 6 mg/kg IP): significantly inhibited in a dose-dependent manner
potentiation of carboplatin anti-tumor effect in vivo ([24]; BMN 673 0.33 mg/kg oral once-a-day 5 or 8 days plus carboplatin 35 mg/kg IP): significant potentiation
tolerability ([24]; BMN 673 0.33 mg/kg plus carboplatin 35 mg/kg IP): No animal lethality or significant body weight loss
off-rate [25]: 0.000105 s⁻¹
on-rate [25]: 368000 M⁻¹ s⁻¹
dissociation rate, times slower than that of veliparib ([25]; vs veliparib): ~40 times

O=C(c1cc(Cc2n[nH]c(=O)c3ccccc23)ccc1F)N1CCN(C(=O)C2CC2)CC1 [Olaparib, olaparib]
pIC50 [3, 26]: 6.59
pIC50 [3, 27]: 6.59
pIC50 [4]: 6.10
pIC50 [5]: 5.19
pIC50 [6, 28]: 5.23
intratumoral PAR level [18, 29]: significant decrease
intratumoral PAR level [18, 30]: partial recovery
intratumoral PAR level [18, 31]: complete recovery
cisplatin sensitizing effect ([23]; olaparib 100 mg/kg oral once-a-day day 1 to 8 plus cisplatin 6 mg/kg): equivalent to the lowest dose of BMN 673
maximum body weight loss ([23]; olaparib 100 mg/kg plus cisplatin 6 mg/kg IP): 3%

CNCc1ccc(-c2[nH]c3cc(F)cc4c3c2CCNC4=O)cc1 [Rucaparib, rucaparib]
pIC50 [5]: 5.26
pIC50 [6, 28]: 5.07

Cn1nnc2c(C(N)=O)ncn2c1=O [TMZ, temozolomide, reference compound]
inhibition at 200 µM ([2]; Homo sapiens, 120 h, read-out: cell growth inhibition): ~15%

C[C@]1(c2nc3c(C(N)=O)cccc3[nH]2)CCCN1 [Veliparib, veliparib]
pIC50 ([3]; read-out: Capan-1 Cytotoxicity IC50, single agent, 50% cell survival reduction): < 5.00
pIC50 ([3]; read-out: SF50 Capan-1 (BRCA2 deficient), 2-D cytotoxicity assay): < 5.00
pIC50 ([6]; read-out: SF50 MRC-5 (Normal), 2-D cytotoxicity assay): < 5.00
off-rate [25]: 0.0041 s⁻¹
on-rate [25]: 1.74e+06 M⁻¹ s⁻¹

N.N.[Cl][Pt][Cl] [cisplatin, reference compound]
maximum average body weight loss ([23]; cisplatin alone, 6 mg/kg IP): 3%

Source: article PMC6485449 (Clinical cancer research : an official journal of the …, 2013)
